According to PMC2408617, “Gametogenesis in Malaria Parasites Is Mediated by the cGMP-Dependent Protein Kinase” (PLoS Biology, 2008):
“Also recorded” adds a separate entry of the source.

What was measured:
P. berghei = details: cited from earlier work
PfPKGT618Q gametocytes = assay: Gametogenesis assay: rounding up, PfPKGT618Q gametocytes; assay type: cell-based, Plasmodium falciparum; details: for RR, relative risk of rounding up, T618Q vs WT: Poisson regression
Method: (§1) P. falciparum gametocytes were produced from the 3D7 clone in human A+ erythrocytes with 10% human serum (National Blood Service), and enriched using Nycodenz (Nycoprep 1.077; Axis-Shield) centrifugation as previously described. For gametogenesis, cells were resuspended at 5 × 10^6 parasites per millilitre and induced with either 20 μM XA or 25–400 μM zaprinast in complete medium, and a reduction (of >5 °C) in temperature. For gametogenesis assays, 10 min post induction, cells were mounted on a wet smear. […] Test reagents including zaprinast, BAPTA-AM, compound 1, and compound 2 were resuspended in DMSO as stock solutions and diluted in complete medium for gametogenesis assays, with the XA stock resuspended in RPMI 1640. The maximum final DMSO concentration in the gametogenesis medium was 0.4%, which was used as a negative control. […] Compound 1 and compound 2 were added at the point of activation with either XA or zaprinast, whereas cells were preincubated with 100 μM BAPTA-AM as previously described. Statistical multivariate analysis was carried out using Poisson regression (Stata 9.2; StataCorp) to compare the effects of genetic background (mutant vs. WT) and experimental replicate (included as categorical data in the analysis) on the rates of rounding up at individual drug concentrations. For each drug concentration, the mutants were tested separately against the WT control, and the resultant output was anti-logged to give the relative risk (and 95% confidence interval) for rounding up with genetic background.
(§2) Supplementary file pbio.0060139.st002.doc: Table S2 Poisson Regression Analysis for Compound 1 Sensitivity of Rounding Up of Both Mutants Compared to WT Each rounding-up measurement was made by counting 200 cells and scoring for rounding up (or not rounding up). At each compound 1 concentration, rounding-up replicate counts for both clones were compared to WT values separately by Poisson regression analysis using the Stata 9.2 package (StataCorp). Where n < 2 (indicated by n.d.), data were excluded from the analysis. Compound 1 concentration (comp1) is shown in micromolar. The p-values from this analysis and the relative risk (RR) of rounding up with genetic background (and 95% confidence intervals [CI]) are shown. (38 KB DOC) Click here for additional data file.

Eimeria = details: cited from earlier work
PfPKGT618M gametocytes = assay: Gametogenesis assay: rounding up, PfPKGT618M gametocytes; assay type: cell-based, Plasmodium falciparum; details: for RR, relative risk of rounding up, T618M vs WT: Poisson regression
Method: as §1, §2

PfPKGT618M = biological target: T1, PfPKGT618M (Plasmodium falciparum, UniProt Q8I719, T618M); assay: Recombinant PKG activity assay, T618M mutant; assay type: biochemical; details: versus WT
T1 construct: The gene encoding full-length PfPKG was cloned into the pTrcHis expression plasmid (Invitrogen); His tag (from pTrcHis vector); made in house; host or cells: Escherichia coli
Excerpt: (§3) Figure 4 Substitution of a Key Active Site Threonine Residue Confers Compound 1 Insensitivity to Recombinant PfPKG (A) An alignment of regions of PfPKG in the ATP-binding pocket, thought to interact with compound 1, with those of other apicomplexans. Conserved active site residues highlighted in grey were predicted to approach compound 1 in a model of the Eimeria tenella PKG [29] (EtPKG). The threonine residue (T618), substituted in PfPKG in this study, is highlighted in grey and marked with an asterisk. Amino acid sequences are numbered to the right of the blocks of sequence. (B) Dose-response curves showing the effect of compound 1 on recombinant PKG enzyme activity assayed in the presence of 10 μM cGMP. Red diamonds indicate full-length WT PfPKG; black triangles, mutated PfPKG with T618 replaced by a glutamine residue; and blue squares, mutated PfPKG with T618 replaced by a methionine residue.
The activity of recombinant and native PKG was measured using a modification of standard procedures. The gene encoding full-length PfPKG was cloned into the pTrcHis expression plasmid (Invitrogen). […] Radiolabelled peptide was detected on 96-well multiscreen phosphocellulose plates (MAPH-NOB; Millipore) by scintillation counting on a Wallac 1450 Microbeta scintillation β-counter (Perkin-Elmer). […]

[1] = test system: P. falciparum gametocytes (WT / Pfrh3- control); assay: Gametogenesis assay: rounding up, WT/control gametocytes; assay type: cell-based, Plasmodium falciparum
Method: as §1

[2] = test system: P. falciparum gametocytes; assay: Gametogenesis assay: exflagellation; assay type: cell-based, Plasmodium falciparum
Method: as §1

PfPKGT618Q = biological target: T2, PfPKGT618Q (Plasmodium falciparum, UniProt Q8I719, T618Q); assay: Recombinant PKG activity assay, T618Q mutant; assay type: biochemical
T2 construct: The gene encoding full-length PfPKG was cloned into the pTrcHis expression plasmid (Invitrogen); His tag (from pTrcHis vector); made in house; host or cells: Escherichia coli
Excerpt: as §3
(§4) The activity of recombinant and native PKG was measured using a modification of standard procedures. The gene encoding full-length PfPKG was cloned into the pTrcHis expression plasmid (Invitrogen). Substitution of specific amino acids of PfPKG was carried out using a QuickChange Multi Site-Directed Mutagenesis kit (Stratagene) according to the manufacturer's instructions. Expression, affinity purification of E. coli–expressed recombinant proteins, and PKG activity assays were performed as previously described. All experiments were performed at least twice in triplicate. PKG measurements in native P. falciparum proteins were performed using an adaptation of a previously described assay. Briefly, ring stage parasites were exposed to 0.15% saponin solution in PBS to free the parasites from their host cells. […] Radiolabelled peptide was detected on 96-well multiscreen phosphocellulose plates (MAPH-NOB; Millipore) by scintillation counting on a Wallac 1450 Microbeta scintillation β-counter (Perkin-Elmer). […]

[3] = test system: P. falciparum asexual blood stages; assay: Asexual parasite growth inhibition, [3H]-hypoxanthine incorporation; assay type: cell-based, Plasmodium falciparum; details: unpublished data
Method: Asexual parasite growth assays were carried out to obtain the IC50 of test compounds using inhibition of incorporation of [^3H]-hypoxanthine, and to compare growth rates between transfected clones. Briefly, in 96-well plates, each test well was dosed at early trophozoite stage with 10 μl of [^3H]-hypoxanthine (GE Healthcare) to a final concentration of 0.2 μCi. The radioactivity of the [^3H]-hypoxanthine incorporated into parasite nucleic acid over 24 h was determined relative to the WT controls using a Wallac 1450 Microbeta scintillation β-counter (Perkin-Elmer). This assay was done in triplicate and repeated at least three times.

T. gondii = details: cited from earlier work
[4] = test system: cGMP-dependent kinase activity in P. falciparum lysates; assay: Native cGMP-dependent kinase activity in cell lysates; assay type: biochemical, Plasmodium falciparum; details: control versus PfPKGT618Q lysates
Method: as §4, with “cells. Both gametocyte and ring stage parasite pellets were lysed in HBS buffer (50 mM Hepes [pH 7.4], 1 mM EDTA, 1% Nonidet P-40, 10 mM NaF, 0.1 mM sodium orthovanadate, 1 mM dithiotreitol) supplemented with a 1/100 dilution of Sigma-Aldrich Protease Inhibitor Cocktail. Parasite lysis was confirmed by microscopic examination of Giemsa-stained thin smears.” for “cells.”

[5] = 1–5 μM compound, XA stimulation

T2 sequence (Q8I719 whole entry T618Q): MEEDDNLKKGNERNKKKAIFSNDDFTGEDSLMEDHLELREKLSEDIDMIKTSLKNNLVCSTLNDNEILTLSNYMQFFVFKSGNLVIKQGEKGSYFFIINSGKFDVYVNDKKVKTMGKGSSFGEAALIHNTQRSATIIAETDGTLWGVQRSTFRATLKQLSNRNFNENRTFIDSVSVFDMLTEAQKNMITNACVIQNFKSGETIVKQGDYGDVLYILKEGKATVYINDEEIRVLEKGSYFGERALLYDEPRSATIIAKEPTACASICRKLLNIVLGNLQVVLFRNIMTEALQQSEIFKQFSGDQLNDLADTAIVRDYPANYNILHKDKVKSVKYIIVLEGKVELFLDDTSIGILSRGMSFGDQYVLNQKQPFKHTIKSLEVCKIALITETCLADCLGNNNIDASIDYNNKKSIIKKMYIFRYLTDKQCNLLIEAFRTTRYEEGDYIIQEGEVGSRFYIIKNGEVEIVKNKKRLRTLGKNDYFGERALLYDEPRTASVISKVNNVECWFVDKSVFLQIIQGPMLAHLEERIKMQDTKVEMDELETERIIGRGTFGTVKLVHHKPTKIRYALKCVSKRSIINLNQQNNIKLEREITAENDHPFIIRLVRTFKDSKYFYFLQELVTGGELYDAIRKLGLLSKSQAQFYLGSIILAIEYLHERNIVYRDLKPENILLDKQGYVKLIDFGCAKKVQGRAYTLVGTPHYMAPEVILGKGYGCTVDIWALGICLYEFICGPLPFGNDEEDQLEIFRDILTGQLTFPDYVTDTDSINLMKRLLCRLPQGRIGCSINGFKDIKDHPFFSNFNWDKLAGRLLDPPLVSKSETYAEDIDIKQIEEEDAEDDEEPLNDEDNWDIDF
T1 sequence (Q8I719 whole entry T618M): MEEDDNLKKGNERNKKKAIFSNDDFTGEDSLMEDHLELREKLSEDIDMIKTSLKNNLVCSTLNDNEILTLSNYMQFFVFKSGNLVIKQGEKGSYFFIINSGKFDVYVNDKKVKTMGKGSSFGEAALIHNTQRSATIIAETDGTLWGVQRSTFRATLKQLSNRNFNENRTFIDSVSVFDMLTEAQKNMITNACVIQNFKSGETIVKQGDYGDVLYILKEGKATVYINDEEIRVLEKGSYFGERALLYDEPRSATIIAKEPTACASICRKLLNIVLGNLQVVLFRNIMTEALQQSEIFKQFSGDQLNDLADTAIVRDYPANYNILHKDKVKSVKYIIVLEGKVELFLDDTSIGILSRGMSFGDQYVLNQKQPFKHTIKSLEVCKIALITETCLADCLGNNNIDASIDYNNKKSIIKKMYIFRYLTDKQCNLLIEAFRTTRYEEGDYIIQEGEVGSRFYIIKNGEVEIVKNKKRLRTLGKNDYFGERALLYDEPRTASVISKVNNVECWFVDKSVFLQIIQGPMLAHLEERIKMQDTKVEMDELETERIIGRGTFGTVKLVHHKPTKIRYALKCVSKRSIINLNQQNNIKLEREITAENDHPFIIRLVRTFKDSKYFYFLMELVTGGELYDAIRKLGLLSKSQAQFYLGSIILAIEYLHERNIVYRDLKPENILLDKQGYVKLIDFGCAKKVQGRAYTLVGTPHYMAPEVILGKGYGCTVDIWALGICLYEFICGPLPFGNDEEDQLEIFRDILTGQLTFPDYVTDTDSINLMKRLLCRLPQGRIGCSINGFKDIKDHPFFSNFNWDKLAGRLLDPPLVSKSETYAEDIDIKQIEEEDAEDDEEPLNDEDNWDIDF

CN1CCC(c2cc(-c3ccncc3)c(-c3ccc(F)cc3)[nH]2)CC1 [compound 1]
effect on P. berghei infections in mice (P. berghei): delays the onset
inhibitory effects on rounding up of PfPKGT618Q gametocytes (PfPKGT618Q gametocytes; 2 μM, stimulation with zaprinast or XA): absence of inhibitory effects
rounding up of PfPKGT618Q gametocytes (PfPKGT618Q gametocytes; [5]): rounded up to almost normal levels
RR, relative risk of rounding up, T618Q vs WT (PfPKGT618Q gametocytes; compound 1 0.1 μM): 1.031
RR, relative risk of rounding up, T618Q vs WT (PfPKGT618Q gametocytes; compound 1 2 μM): 1.827
RR, relative risk of rounding up, T618Q vs WT (PfPKGT618Q gametocytes; compound 1 5 μM): 2.248
RR, relative risk of rounding up, T618Q vs WT (PfPKGT618Q gametocytes; compound 1 6 μM): 1.974
RR, relative risk of rounding up, T618Q vs WT (PfPKGT618Q gametocytes; compound 1 8 μM): 1.910
RR, relative risk of rounding up, T618Q vs WT (PfPKGT618Q gametocytes; compound 1 10 μM): 1.649
RR, relative risk of rounding up, T618Q vs WT (PfPKGT618Q gametocytes; compound 1 20 μM): 1.283
lower sensitivity of PfPKGT618Q gametocytes than control cells (rounding up) (PfPKGT618Q gametocytes; range of inhibitor concentrations, approximately): 10–20 fold
effect on Eimeria infection in chickens (Eimeria): cure
RR, relative risk of rounding up, T618M vs WT (PfPKGT618M gametocytes; compound 1 0.1 μM): 1.014
RR, relative risk of rounding up, T618M vs WT (PfPKGT618M gametocytes; compound 1 2 μM): 1.020
RR, relative risk of rounding up, T618M vs WT (PfPKGT618M gametocytes; compound 1 4 μM): 0.946
RR, relative risk of rounding up, T618M vs WT (PfPKGT618M gametocytes; compound 1 5 μM): 1.010
RR, relative risk of rounding up, T618M vs WT (PfPKGT618M gametocytes; compound 1 6 μM): 1.002
RR, relative risk of rounding up, T618M vs WT (PfPKGT618M gametocytes; compound 1 20 μM): 0.861
difference in sensitivity of PfPKGT618M line compared to control cells (PfPKGT618M gametocytes; rounding up and exflagellation): no significant difference in sensitivity
increase in sensitivity of T618M recombinant enzyme (PfPKGT618M): < 4 fold
gametocytes in which change of shape is prevented [1]: over 90%
rounding up of control gametocytes [1, 5]: reduced rounding up to background levels
inhibition of rounding up ([1]; control gametocytes stimulated with XA (or zaprinast)): inhibited by compound 1 in a dose-dependent manner
inhibition of exflagellation ([2]; gametocytes stimulated with XA or zaprinast): inhibited by compound 1 in a dose-dependent manner; also recorded: inhibited exflagellation in a dose-dependent manner
difference in sensitivity of exflagellation between control and PfPKGT618Q cell lines ([2]; unpublished data): no significant difference in sensitivity
IC50 (PfPKGT618Q; 10 μM cGMP, read-out: IC50, PfPKGT618Q recombinant enzyme): 17.8 ± 4.7 µM
less sensitive, PfPKGT618Q versus WT recombinant enzyme (PfPKGT618Q; ratio of IC50 values): over 3,000 times
decreased sensitivity conferred by T618Q in the recombinant protein (PfPKGT618Q; versus WT): > 3,000 fold
IC50 [3]: 2700 ± 170 nM
effect on infection by T. gondii in mice (T. gondii): cure
sensitivity of cGMP-dependent kinase activity in control and mutant lysates [4]: equivalent levels of sensitivity
